Measured values as given in a melting point compilation (Tetko et al.; mined from patent text by program, amines drawn as free bases though some values may be those of a salt).

Structure (SMILES) | melting point
COC(=O)c1ccc(S(=O)(=O)N2CC[C@H](OS(C)(=O)=O)C2)n1C | 79 to 81 °C
O=C(O)CCSCC(=O)c1cc2[nH]c(=O)[nH]c2cc1Cl | 186 to 187 °C
Nc1cc(Br)cc(Br)c1N | 78 to 80 °C
Fc1ccccc1NC(=S)c1ccccn1 | 94 to 97 °C
C#CCOc1cc(-c2ncnc(C)c2C)c(F)cc1Cl | 131 to 133 °C
CCCCN1CSC(=S)N(Cc2ccncc2)C1 | 75 to 80 °C
Cc1cccc(Cl)c1NC(=S)Nc1c(C)nn(C)c1C | 201 to 202 °C
CCCCCCCC(=O)C(CC(=O)OCC)C(=O)OCC (stereo not given) | 138 to 142 °C
CCc1cc(CC)c(-c2c(OCCl)c(C)nn(C)c2=O)c(CC)c1 | 103 to 104 °C
CC(C)[C@H](NC(=O)OCC1c2ccccc2-c2ccccc21)C(=O)N[C@@H](C)C(=O)O | 122 to 123 °C
O=S1(=O)CCCS(=O)(=O)C1(CCCCl)c1ccccc1 | 182 °C
COc1cc(OC)cc(S(=O)(=O)c2ccc(N)c(C)c2)c1 | 121 to 123 °C
NC(=S)NN=C(CNC(=O)Cc1ccccc1)c1ccccc1 | 170 to 172 °C
CN=C(NCc1ccccc1)NN=Cc1c(Cl)cccc1Cl | 84 to 86 °C
COc1cc(-n2cnnc2I)ccc1C | 123 °C
CC(C(=O)O)c1ccc(-c2ccc(O)cc2)cc1 (stereo not given) | 205 to 206 °C
Cc1c(C(=O)CC(C)C)cc2c(c1C)OC(C(=O)O)C2 (stereo not given) | 117 °C
C=C(C)C(=O)Oc1cc(C(=O)OCC)cc(O)c1O | 106 to 108 °C
COc1cc2c(c(Cl)c1Cl)C(=O)C(C)(CC1CCCC1)C2 (stereo not given) | 75 to 77 °C
CCCCOc1ccc(/C=C/c2nc3c(c(=O)n(CC)c(=O)n3CC)n2C)cc1 | 123 to 124 °C
Oc1cc(O)c(C23CC4CC(CC(C4)C2)C3)cc1C12CC3CC(CC(C3)C1)C2 | 146 °C
CC1=C(CCOC(=O)C(C)(C)C)C2=C(O)N(I)CN(CCOC(=O)C(C)(C)C)C2=N1 | 155 °C

Structure (SMILES) | melting point
N#C/C=C/c1cn(-c2c(Cl)cc(C(F)(F)F)cc2Cl)nc1C#N | 144 to 145 °C
COC(C)(CN(c1c(C)cccc1Cl)S(C)(=O)=O)OC | 84 °C
CCCCc1nc(C(=O)CC)c(C#N)n1C(c1ccccc1)(c1ccccc1)c1ccccc1 | 140 to 143 °C
CC(=O)OC1(C(C)=O)C(C)CC2C3CC(C)C4=CC(=O)C=CC4(C)C3(F)C(O)CC21C (stereo not given) | 291 to 293 °C
CC(C)(C)c1cc(-c2csc3nc(-c4ccccc4)c(-c4ccccc4)n23)cc(C(C)(C)C)c1O | 237 to 238 °C
O=C(Oc1ccc(F)cc1)c1cc(C(F)(F)F)cc(C(F)(F)F)c1 | 60 to 61 °C
CC(C)C1=CC(=O)C2=C(CCC3C(C)(C(=O)O)CCCC23C)C1=O (stereo not given) | 207 to 209 °C
CCOC(=O)C(O)CCn1cnc2c(Cl)nc(N)nc21 (stereo not given) | 163 to 164 °C
CC=CC(=O)c1c(CCC)[nH]c2cc(C(=O)OC)ccc12 | 153 to 154 °C
O=C(O)C(c1ccc(F)cc1)N1C(=O)c2ccccc2C1=O (stereo not given) | 174 to 180 °C
C(=C\c1nc(CSc2ccc(CCCn3ccnc3)cc2)co1)/c1ccccc1 | 74 to 75 °C
CN1CCC=C(c2nc(NC=O)sc2Cl)C1 | 193 °C
CCOC(=O)C(=O)C1C(=O)c2c(OC)ccc3c2C1CCO3 (stereo not given) | 104 to 106 °C
N#CNc1ccccc1-c1ccccc1F | 68 to 69 °C
O=C(O)CNC(=O)CSC(=O)c1ccccc1 | 140 to 142 °C
N#CNC(=O)C12CC3CC(CC(C3)C1)C2 | 164 to 166 °C
CN1C2CCC1[C@H](CO)[C@@H](c1cccs1)C2 (stereo not given in full) | 154 to 158 °C
CC(NC1=NS(=O)(=O)c2cc(Br)ccc2N1)C(C)(C)C (stereo not given) | > 220 °C
Cc1c(C(F)(F)C(F)(F)C(F)(F)F)ncn1-c1ncc(C(F)(F)F)cc1Cl | 62.5 °C
CN1Cc2c(C#CC(C)(C)O)ncn2-c2ccccc2C1=O | 168 to 169 °C
CC(=O)CC(=O)NC1CCCCCCC1 | 44 °C

Results, then the compound that gave them:

melting point | Structure (SMILES)
237 to 239 °C | CN1CC[C@@H](c2c(O)cc(O)c3c(=O)cc(-c4cccc(F)c4Br)oc23)[C@@H]1CO
111 to 116 °C | O=C(CC1CCCC1)Nc1ccc2cccc(OS(=O)(=O)C(F)(F)F)c2c1
255 to 256 °C | CC1(C)OCCN1CCNc1ccc(NCCN2CCOC2(C)C)c2c1C(=O)c1c(O)ccc(O)c1C2=O
176 °C | O=C(O)C(c1ccc2c(c1)OCO2)n1nc(C2CC2)cc(-c2ccccc2)c1=O (stereo not given)
137 to 139 °C | COc1ccccc1N1CCN(CCCNC2=CC(=O)N(C)S(=O)(=O)N2C)CC1
80.5 to 81 °C | Cn1ncc2c1-c1cc(Cl)ccc1OC2
119 to 120 °C | CCOC(=O)C1CCN(c2nnc(NCc3ccc4c(c3)OCO4)c3cnccc23)CC1
164 to 166 °C | Cc1c(C)c(N2Cc3ccccc3C2)c(C)c2c1OC(C)(C)C2c1ccccc1 (stereo not given)
249 to 251 °C | CCCc1nc2c(N)nc3ccccc3c2n1CCCC(N)=O
131 to 133 °C | Cc1ccc(C(=O)N2CCN(CC3(C)Cc4c(C)c(N)c(C)c(C)c4O3)CC2)cc1 (stereo not given)
146 to 148 °C | CN(Cc1cccc2ccccc12)c1ncnc2c(N3CCOCC3)nc(N3CCC(N(C)C)CC3)nc12
120 to 122 °C | O=C1C2CCCC2=Nc2ccccc2N1Cc1cccc(OCc2ccccc2)c1 (stereo not given)
139 to 142 °C | CNC(=O)N(C)c1nnc(SCc2ccccc2)s1
86 °C | CCC(C)N(C)C(=O)c1cc(-c2ccccc2F)c2ccccc2n1 (stereo not given)
158 to 160 °C | CCc1ccc(-n2nc(Cl)cc2-c2ccc(S(C)(=O)=O)cc2)cc1N
132 to 133 °C | CCOC(=O)c1c(CN(CC)CC)nc2ccc(Cl)cc2c1-c1ccc(Cl)cc1
207 to 209 °C | COc1ccnc(CCc2nc3cc(Br)cnc3[nH]2)c1
119 to 121 °C | COc1cc(CCNc2ncnc3c(F)ccc(F)c23)ccc1Oc1ccc(C(F)(F)F)cn1
271 to 272 °C | CC(=O)Nc1nc2c(Oc3cc(-c4ccc(Br)cc4)ncn3)cccc2s1

melting point | Structure (SMILES)
73 to 82 °C | COc1cc(C2CCN(C[C@H](Oc3ncc4ccc(-c5ccccc5OC)n4n3)C(F)(F)F)CC2)ccc1N
150 to 151 °C | COc1cc(Cl)cn2cc(-c3ccc(Cl)cc3)nc12
118 to 120 °C | Cc1nc2c(OCc3ccccc3)cc(C(=O)N(C)C)cc2n1COCC[Si](C)(C)C
90 to 92 °C | COc1ccc(N(CCCC(=O)O)C(=O)CCN(C(C)=O)c2c(C)cccc2C)cc1
142 to 144 °C | CC(=O)c1ccc(OCc2cncnc2)cc1OC(CCC(=O)O)c1ccccc1C (racemic)
156 to 158 °C | CC1(C)OCc2cc([C@@H](O)CN[C@H]3CCc4ccc(O)cc4C3)ccc2O1
154 to 155 °C | CCCCn1c(C)c(C)cc(NC(=O)Nc2ccccc2Br)c1=O
167 to 169 °C | CC(=O)Oc1ccc(-c2cc(=O)c3cccnc3o2)cc1
157 °C | Cc1nc(NC(=O)Cc2ccsc2)c(Br)c(C)c1Br
156 °C | Cc1ccc(-c2cncn2-c2ccc(S(C)(=O)=O)cc2)cc1
259 to 260 °C | COc1cc(C=CC(=O)Nc2c(-c3ccccc3Cl)c3cc(C)c(C)cc3n(C)c2=O)cc(OC)c1OC(C)=O
223 to 228 °C | CCN(CC)C/C=C/c1ccc2c(Nc3ccc(Sc4nccn4C)c(Cl)c3)c(C#N)cnc2c1
196 to 197 °C | O=C(O)c1cc2ccc(OCc3ccccc3)cc2oc1=O
209 to 212 °C | CCCCCCCNC(=O)Nc1ccccc1C(=O)N1CCN(c2ccccc2OC)CC1
196 to 198 °C | Cc1cc(O)cc2cc(-c3ccc(O)c(F)c3)oc12
> 300 °C | O=C(O)c1cn(-c2ccc(F)cc2)c2c(F)c(N3Cc4ccc(F)cc4C3)c(F)cc2c1=O
126 to 128 °C | CCCc1nn(C)c2c(Oc3ccc(F)cc3)nc(-c3ccccc3)nc12
148 to 150 °C | CC(=O)OC1CSC(Oc2cncc(-c3ncccc3C)c2)C(OC(C)=O)C1OC(C)=O (stereo not given)
94 to 96 °C | CC1(C)CON(Cc2ccc(NC(=O)c3ncccc3C(=O)O)cc2Cl)C1=O

melting point | Structure (SMILES)
130 to 134 °C | CC12CCCC1C1=CCc3cc(O)ccc3C1CC2 (stereo not given)
101 to 102 °C | CC(C)(C)OC(=O)CCCCCOc1ccc2sc(-c3ccccn3)nc(=O)c2c1
169 °C | CCOC(=O)c1c(-c2cccc(Cl)c2)csc1N1C(=O)c2ccccc2C1=O
144 to 146 °C | COc1cccc(C2(CC(=O)O)CNC(=O)C2)c1 (stereo not given)
72 to 75 °C | O=C(OCCN1CCCCCC1)c1ccccc1Nc1ccnc2cc(C(F)(F)F)ccc12
99 to 100 °C | CCCc1nn(-c2ccc(C(F)(F)F)cn2)cc1CCCOc1cccc(OC(C)(C)C(=O)O)c1
76 to 78 °C | Cn1cc(C(=O)Nc2ccccc2-c2cccc(C#N)c2)c(C(F)(F)F)n1
145 to 146 °C | CCOC(=O)C1C=CC(c2ccccc2)n2c(=O)n(CCl)c(=O)n21 (stereo not given)
176 to 178 °C | NC(=O)[C@H]1CN(c2ccc(I)c(F)c2)C(=O)O1
146 to 147 °C | Cc1sc2c(c1C(=O)CCN1CCN(c3nsc4ccccc34)CC1)NC(=O)CCC2
154 to 155 °C | CCc1nc(/C=C/c2cn(-c3ccccc3)nc2OCc2ccc(OCc3nc(-c4cccc(CC(=O)O)c4)oc3C)c(OC)c2)cs1
150 to 152 °C | NC1=NN(c2ccccc2)C(c2ccc(Cl)c(Cl)c2)C1 (stereo not given)
240 to 245 °C | COC(=O)Nc1nc2cc(F)c(OC(C)c3c(Cl)cccc3Cl)cc2[nH]1 (stereo not given)
123 to 125 °C | N#CCC(=O)NCc1cccc(Cl)c1
213 to 215 °C | O=C(O)c1ccc(NCCC(c2ccc(Cl)cc2)c2ccc(Cl)cc2)cc1
95 to 105 °C | Nc1ccc(C(=O)N2CCOCC2)cc1OCc1ccc(-c2ccccc2-c2nnnn2C(c2ccccc2)(c2ccccc2)c2ccccc2)cc1
66 to 69 °C | COc1nc(C)c(C(C)=O)cc1NC(=O)N1CCN(c2cc(C)cc(C)c2)CC1
230 to 231 °C | COC(=O)c1ncc(OS(=O)(=O)c2ccc(C)cc2)c2c1[nH]c1ccccc12
227 to 228 °C | CCOC(=O)c1nc2ccc([N+](=O)[O-])cc2c(=O)[nH]1
